Results published in US11104630B2, “Synthesis of mono-chlorinated acetophenone” (SIEGFRIED AG, priority 2017, dated 2021).

Test: Solubility of the starting material in the solvent
Format: physicochemical
Details: 20° C., until clear solution
Protocol: Solubility of the Starting Material in the Solvent
To 1 g of HAP is added 5 ml of solvent. The mixture is stirred in a water bath at 20° C. The solvent is further slowly added under stirring until a clear solution appears.
The amount of used solvent is noted.

CC(=O)c1cccc(O)c1 [HAP, 3-hydroxy-acetophenon]
Solvent in ml per g HAP (solvent Acetone): 46 ml per g HAP
Solvent in ml per g HAP (solvent Acetonitrile): 6 ml per g HAP
Solvent in ml per g HAP (solvent Cyclohexane): >200 ml per g HAP
Solvent in ml per g HAP (solvent DCM): 22 ml per g HAP
Solvent in ml per g HAP (solvent Ethanol): 20 ml per g HAP
Solvent in ml per g HAP (solvent Ether): 8 ml per g HAP
Solvent in ml per g HAP (solvent Methanol): 10 ml per g HAP
Solvent in ml per g HAP (solvent Tetraglyme): 9 ml per g HAP
Solvent in ml per g HAP (solvent Toluene): 156 ml per g HAP
Solvent in ml per g HAP (solvent n-Heptane): 20 ml per g HAP
Solvent in ml per g HAP (solvent n-Hexane): 23 ml per g HAP
